Laboratory results published in PubChem BioAssay AID190 (DTP/NCI, 2004).
Where “and” joins values, the source holds several entries; their conditions need not be identical. Identical values can stand only once. Inconclusive results and toxic doses are left out.

System: AKR/Lw mice, AKR lymphoma ip, median survival T/C
Assay: NCI In Vivo Anticancer Drug Screen. Data for tumor model Lymphoma AKR (Transplanted) (intraperitoneal) in AKR/Lw mice
Conditions: endpoint: median survival time, higher = longer survival
Description: The antitumor activity of compounds was measured in mice bearing transplantable tumors. Survival or tumor size were measured and the results are expressed as the measurement made in the treated group (T) divided by the measurement made in the vehicle treated control group (C). The tumor model used in this assay is Lymphoma AKR (Transplanted) (intraperitoneal) in AKR/Lw mice

[1] = dose: 100.0 mg/kg/injection, schedule: Q01DX001 (ip), vehicle: saline
[2] = dose: 100.0 mg/kg/injection, schedule: Q04DX003 (ip), vehicle: Klucel (hydroxypropylcellulose) (HPC)
[3] = dose: 200.0 mg/kg/injection, schedule: Q01DX001 (ip), vehicle: saline
[4] = dose: 200.0 mg/kg/injection, schedule: Q04DX003 (ip), vehicle: Klucel (hydroxypropylcellulose) (HPC)
[5] = dose: 400.0 mg/kg/injection, schedule: Q01DX001 (ip), vehicle: saline
[6] = dose: 400.0 mg/kg/injection, schedule: Q04DX003 (ip), vehicle: Klucel (hydroxypropylcellulose) (HPC)
[7] = dose: 50.0 mg/kg/injection, schedule: Q04DX003 (ip), vehicle: Klucel (hydroxypropylcellulose) (HPC)
[8] = dose: 100.0 mg/kg/injection, schedule: Q01DX001 (ip), vehicle: Klucel (hydroxypropylcellulose) (HPC)
[9] = dose: 200.0 mg/kg/injection, schedule: Q01DX001 (ip), vehicle: Klucel (hydroxypropylcellulose) (HPC)
[10] = dose: 400.0 mg/kg/injection, schedule: Q01DX001 (ip), vehicle: Klucel (hydroxypropylcellulose) (HPC)
[11] = dose: 6.2 mg/kg/injection, schedule: Q04DX003 (ip), vehicle: saline

Cn1c(O)c(C=N)c(=O)[nH]c1=O
T/C [1]: 113 % of control | T/C [2]: 104 % of control | T/C [3]: 94 % of control | T/C [4]: 93 % of control | T/C [5]: 113 % of control | T/C [6]: 97 % of control

CCn1c(O)c(C=N)c(=O)[nH]c1=O
T/C (dose: 50.0 mg/kg/injection, schedule: Q01DX001 (ip), vehicle: saline): 102 % of control | T/C [7]: 87 % of control | T/C [1]: 94 % of control | T/C [3]: 94 % of control | T/C [4]: 93 % of control

O=C(O)/C=C/C(=O)Nc1cccc(Oc2ccc([N+](=O)[O-])cc2[N+](=O)[O-])c1
T/C [1]: 91 % of control | T/C [3]: 103 % of control

O=c1[nH]cc(-c2ccccc2)c(=O)[nH]1
T/C [1]: 94 % of control | T/C [3]: 88 % of control | T/C [5]: 97 % of control

CCOC(=O)CCCSCCCC(=O)OCC
T/C [3]: 89 % of control | T/C [5]: 95 % of control

NS(=O)(=O)c1ccc(N=Nc2nc3ncnc(SCc4cccs4)c3[nH]2)cc1
T/C [8]: 97 % of control | T/C [9]: 102 % of control | T/C [10]: 107 % of control

CC(=O)CCN1C(=O)c2ccccc2C1=O
T/C [8]: 105 % of control | T/C [9]: 105 % of control | T/C [4]: 97 % of control | T/C [10]: 102 % of control | T/C [6]: 89 % of control

O=C1CC2CCCC(C1)S2=O (stereo not given)
T/C [1]: 113 % of control | T/C [3]: 89 % of control | T/C [5]: 97 % of control

O=c1[nH]c(=O)n(C2CC(O)C(CO)O2)cc1F (stereo not given)
T/C (dose: 3.1 mg/kg/injection, schedule: Q04DX003 (ip), vehicle: saline): 100 % of control | T/C (dose: 5.0 mg/kg/injection, schedule: Q01DX009 (ip), vehicle: saline): 100 % of control | T/C [11]: 92 % of control | T/C (dose: 6.25 mg/kg/injection, schedule: Q01DX009 (ip), vehicle: saline): 104 % of control | T/C (dose: 10.0 mg/kg/injection, schedule: Q01DX009 (ip), vehicle: saline): 106 % of control | T/C (dose: 11.0 mg/kg/injection, schedule: Q01DX015 (ip), vehicle: saline): 86 % of control | T/C (dose: 12.5 mg/kg/injection, schedule: Q01DX015 (ip), vehicle: saline): 117 % of control | T/C (dose: 12.5 mg/kg/injection, schedule: Q04DX003 (ip), vehicle: saline): 94 % of control and 102 % of control | T/C (dose: 15.0 mg/kg/injection, schedule: Q01DX009 (ip), vehicle: saline): 102 % of control and 123 % of control | T/C (dose: 16.5 mg/kg/injection, schedule: Q01DX015 (ip), vehicle: saline): 86 % of control | T/C (dose: 25.0 mg/kg/injection, schedule: Q01DX015 (ip), vehicle: saline): 113 % of control | T/C (dose: 25.0 mg/kg/injection, schedule: Q04DX003 (ip), vehicle: saline): 90 % of control and 97 % of control | T/C (dose: 40.0 mg/kg/injection, schedule: Q01DX015 (ip), vehicle: saline): 86 % of control | T/C (dose: 50.0 mg/kg/injection, schedule: Q01DX015 (ip), vehicle: saline): 114 % of control and 121 % of control | T/C (dose: 60.0 mg/kg/injection, schedule: Q01DX001 (ip), vehicle: saline): 111 % of control | T/C (dose: 60.0 mg/kg/injection, schedule: Q01DX009 (ip), vehicle: saline): 112 % of control and 117 % of control | T/C (dose: 75.0 mg/kg/injection, schedule: Q01DX009 (ip), vehicle: saline): 115 % of control | T/C [1]: 95 % of control and 97 % of control | T/C (dose: 100.0 mg/kg/injection, schedule: Q04DX003 (ip), vehicle: saline): 86 % of control and 90 % of control and 104 % of control | T/C (dose: 120.0 mg/kg/injection, schedule: Q01DX001 (ip), vehicle: saline): 107 % of control | T/C (dose: 150.0 mg/kg/injection, schedule: Q01DX001 (ip), vehicle: saline): 105 % of control and 110 % of control and 116 % of control | T/C (dose: 150.0 mg/kg/injection, schedule: Q04DX003 (ip), vehicle: saline): 123 % of control | T/C [3]: 104 % of control and 105 % of control and 119 % of control | T/C (dose: 250.0 mg/kg/injection, schedule: Q04DX003 (ip), vehicle: saline): 150 % of control

O=C(NC(CSC(c1ccccc1)c1ccccc1)C(=O)O)OCc1ccccc1 (stereo not given)
T/C [8]: 95 % of control | T/C [9]: 93 % of control | T/C [10]: 95 % of control

S=c1nc(-c2ccccc2)c(-c2ccccc2)n[nH]1
T/C (dose: 100.0 mg/kg/injection, schedule: Q01DX001 (ip), vehicle: saline with Tween-80): 106 % of control | T/C (dose: 200.0 mg/kg/injection, schedule: Q01DX001 (ip), vehicle: saline with Tween-80): 103 % of control | T/C (dose: 400.0 mg/kg/injection, schedule: Q01DX001 (ip), vehicle: saline with Tween-80): 112 % of control

CC1(C)N=C(N)N=C(N)N1c1cc(Cl)c(Cl)cc1Cl
T/C (dose: 25.0 mg/kg/injection, schedule: Q01DX001 (ip), vehicle: Klucel (hydroxypropylcellulose) (HPC)): 106 % of control | T/C (dose: 35.0 mg/kg/injection, schedule: Q01DX001 (ip), vehicle: Klucel (hydroxypropylcellulose) (HPC)): 100 % of control | T/C (dose: 50.0 mg/kg/injection, schedule: Q01DX001 (ip), vehicle: Klucel (hydroxypropylcellulose) (HPC)): 106 % of control

CC[C@H]1CN2CCc3cc(OC)c(OC)cc3[C@@H]2C[C@@H]1C[C@H]1NCCc2cc(OC)c(OC)cc21
T/C (dose: 0.5 mg/kg/injection, schedule: Q01DX009 (ip), vehicle: saline): 100 % of control | T/C (dose: 0.75 mg/kg/injection, schedule: Q04DX003 (ip), vehicle: saline): 87 % of control | T/C (dose: 1.0 mg/kg/injection, schedule: Q01DX009 (ip), vehicle: saline): 96 % of control and 107 % of control | T/C (dose: 1.25 mg/kg/injection, schedule: Q01DX009 (ip), vehicle: saline): 102 % of control | T/C (dose: 1.5 mg/kg/injection, schedule: Q04DX003 (ip), vehicle: saline): 87 % of control | T/C (dose: 2.0 mg/kg/injection, schedule: Q01DX009 (ip), vehicle: saline): 96 % of control | T/C (dose: 2.5 mg/kg/injection, schedule: Q01DX009 (ip), vehicle: saline with Tween-80): 100 % of control | T/C (dose: 3.0 mg/kg/injection, schedule: Q01DX001 (ip), vehicle: saline): 95 % of control | T/C (dose: 3.0 mg/kg/injection, schedule: Q04DX003 (ip), vehicle: saline): 97 % of control | T/C (dose: 5.0 mg/kg/injection, schedule: Q01DX009 (ip), vehicle: saline with Tween-80): 122 % of control | T/C (dose: 5.0 mg/kg/injection, schedule: Q04DX003 (ip), vehicle: saline): 95 % of control | T/C (dose: 6.0 mg/kg/injection, schedule: Q01DX001 (ip), vehicle: saline): 111 % of control | T/C (dose: 6.0 mg/kg/injection, schedule: Q04DX003 (ip), vehicle: saline): 96 % of control and 118 % of control | T/C (dose: 6.2 mg/kg/injection, schedule: Q01DX001 (ip), vehicle: saline): 105 % of control | T/C [11]: 96 % of control and 100 % of control and 124 % of control | T/C (dose: 6.25 mg/kg/injection, schedule: Q04DX003 (ip), vehicle: saline): 116 % of control and 117 % of control | T/C (dose: 7.5 mg/kg/injection, schedule: Q01DX001 (ip), vehicle: saline): 111 % of control | T/C (dose: 10.0 mg/kg/injection, schedule: Q01DX009 (ip), vehicle: saline with Tween-80): 106 % of control | T/C (dose: 12.0 mg/kg/injection, schedule: Q01DX001 (ip), vehicle: saline): 115 % of control | T/C (dose: 12.5 mg/kg/injection, schedule: Q01DX001 (ip), vehicle: saline): 103 % of control and 113 % of control | T/C (dose: 15.0 mg/kg/injection, schedule: Q01DX001 (ip), vehicle: saline): 117 % of control

ClCCCNCc1ccccc1
T/C [1]: 94 % of control

Cc1ccc(N2C(=O)CC(Sc3ccccc3N)C2=O)cc1 (stereo not given)
T/C [7]: 100 % of control | T/C [8]: 100 % of control | T/C [2]: 90 % of control | T/C [4]: 90 % of control

C/C=C(/Cl)c1c(C)cc(C)c(CC(=O)O)c1C
T/C [9]: 106 % of control | T/C [10]: 109 % of control
